The nature of data set [1]: Gelation of aqueous peptide formulations on adding polar aprotic solvents such as DMSO. The data set is classed as physicochemical. The note with it: aqueous formulation. The source says: Thus, these solvents have an anti-gellant effect.
A short description of data set [2]: Accelerated stability of 30% goserelin at 80° C., purity by RP-HPLC. The data set is classed as physicochemical. The note with it: 30% (w/w) in acetate buffer pH 5.0 with 3% mannitol, glass ampules, after 9 days.
Data set [3] can be described thus: Stability of 40-45% goserelin formulations, one month at 37° C., RP-HPLC. Conditions: for % PURITY / % CONCENTRATION: 40-45% (w/w); for % CONCENTRATION: patent calls these data inconclusive. The data set is classed as physicochemical. As for the experimental part:
Stability samples were analyzed using RP-HPLC. The area under the curve for the leuprolide peak divided by the sum of the areas under the curve of all peaks gave % purity. […] Formulations of 40-45% (w/w) goserelin in either acetate buffer, with 3% mannitol or acetate buffer with salt (0.9% NaCl) were prepared as described above and placed in polymeric containers. The containers were stored at 37° C. for one month in an incubator. The samples were analyzed using RP-HPLC to determine the chemical stability of the aged formulations.

Data set [4] has as its system bacteria. Briefly: Bacteriostatic, bactericidal and sporicidal activity of leuprolide formulations; spiking with bacteria. Conditions: formulations of 50-400 mg/ml.
For data set [5] the following is noted: 40% in water, nine months at 37° C., RP-HPLC.
Procedure: All stability samples were analyzed for leuprolide concentration and % peak area using a gradient elution reversed-phase HPLC assay with a refrigerated autosampler (4° C.) to minimize sample degradation.
Data set [6] is classed as physicochemical. Conditions: for evaporated from reservoir / % Leuprolide at Day 7: 88° C.; for evaporated from reservoir: 7 days. The source says:
The reservoirs of implantable drug delivery devices (as disclosed in U.S. patent application Ser. No. 08/595,761, incorporated herein by reference) were filled with the appropriate leuprolide acetate solution. The filled devices then underwent stability testing. The formulation was filled into titanium or polymer reservoirs with a polymer plug blocking each end. The filled reservoir was then sealed in a polyfoil bag and placed in a stability testing oven. […] The chromatographic conditions used are listed below. Leuprolide standards (in water) at 4 to 6 different concentration levels, typically between 0.1-1.2 mg/mL, were run along with the stability samples. The stability samples were bracketed by the standard sets, with no more than 40 samples in between the standard sets. All peaks between the void volume and 45 minutes of the run were integrated. The integrated peak areas for the leuprolide standards were plotted as a function of the concentration. The leuprolide concentrations for the stability samples were then calculated using linear regression. The % peak areas for the leuprolide peak, the sum of all the peaks eluting before leuprolide (labeled "others"), and the sum of all the peaks eluting after leuprolide (labeled "aggregates") were also recorded and plotted as a function of the sample timepoints. Formulations of 40% (w/w) leuprolide acetate (equivalent to about 37% leuprolide free base) in either sterile distilled water, ethanol/water (70/30) or water with 10% Tween 20 were prepared as described above and used to fill the reservoirs of implantable drug delivery devices, also as described above. Some reservoirs were made of polymer materials, while some were titanium. The filled devices were subjected to accelerated aging by storing them at elevated temperatures (80-88° C.) for seven days in an incubator (Precision Scientific or Thelco). This is equivalent to about 1.5 years at 37° C. or about four years at room temperature (25° C.), assuming an activation energy (Ea) or 22.2 kcal/mole. The samples were analyzed using RP-HPLC and SEC as described above to determine the chemical and physical stability of the aged formulations.

A short description of data set [7]: Stability of 40% leuprolide acetate formulations after 2.5 megarad gamma irradiation and accelerated aging, RP-HPLC and SEC. Type of data set: physicochemical. The note with it: for % Leuprolide at Day 7 (RP-HPLC) / SEC Day 0 % dimer/trimer / SEC Day 0 % monomer / SEC Day 7 % dimer/trimer / SEC Day 7 % monomer: 40% in Water. On the procedure: (§1) The chromatographic conditions used are listed below.
Formulations of 40% (w/w) as received leuprolide acetate (equivalent to 37% leuprolide free base) in water were prepared as described above and used to fill the reservoirs of drug delivery devices, also as described above. Some reservoirs were made of polymer materials, while some were titanium.
The filled devices were subjected to 2.5 megarad gamma irradiation. Samples were shipped to Sterigenics (Tustin, Calif.) and gamma irradiated (Cobalt 60) in batch mode. Samples were then subjected to accelerated aging as in Example 1. Samples labeled "cold" were shipped and irradiated on dry ice. Samples were taken at day 0 and day 7, and analyzed using RP-HPLC and SEC as described above to determine the chemical and physical stability of the irradiated formulations.

How the values of data set [8] were obtained: as §1
Selected stability samples were analyzed for % peak area and molecular weights using an isocratic solution SEC assay with a refrigerated autosampler (4° C.). The chromatographic conditions used are listed below.
Solutions of 40% leuprolide acetate (w/w) in water were prepared, loaded into reservoirs, stored for two months at 80° C. and analyzed as described above.
Leuprolide acetate solutions (40% (w/w) in water) were prepared, loaded, stored at 37° C., 50° C., 65° C. or 80° C. and analyzed using RP-HPLC as described above.
Solutions of 40% leuprolide acetate (w/w) in water were prepared, loaded into reservoirs, stored at 37° C., 50° C., 65° C. or 80° C. and analyzed using RP-HPLC as described above.

The nature of data set [9]: Stability of 15% nafarelin formulation, one month at 37° C., RP-HPLC. Type of data set: physicochemical. Conditions: 15% (w/w), Acetate Buffer/Mannitol. On the procedure:
Stability samples were analyzed using RP-HPLC. The area under the curve for the leuprolide peak divided by the sum of the areas under the curve of all peaks gave % purity. […] Formulations of 15% (w/w) nafarelin in acetate buffer with 3% mannitol were prepared as described above and placed in polymeric containers. The containers were stored at 37° C. for one month in an incubator. The samples were analyzed using RP-HPLC to determine the chemical stability of the aged formulations.

Where [10] appears, read: Acetate Buffer/Salt (0.9% NaCl).
The mark [11] stands for this setting: all Table IV formulations, after irradiation and 7 days accelerated aging.
[12] abbreviates: polymer reservoir, irradiated cold (on dry ice).
Where [13] appears, read: polymer reservoir, not irradiated.
[14] abbreviates: titanium reservoir, not irradiated.

Values joined by “and” are separate entries in the source; they are usually repeats but may differ in a detail not shown here. Identical values can stand only once. Like-named read-outs stand apart in the source and are kept apart here.

For the compound `CC(C)C[C@H](NC(=O)[C@@H](COC(C)(C)C)NC(=O)[C@H](Cc1ccc(O)cc1)NC(=O)[C@H](CO)NC(=O)[C@H](Cc1c[nH]c2ccccc12)NC(=O)[C@H](Cc1cnc[nH]1)NC(=O)[C@@H]1CCC(=O)N1)C(=O)N[C@@H](CCCNC(=N)N)C(=O)N1CCC[C@H]1C(=O)NNC(N)=O` [Goserelin, goserelin], in data set [1], the “effect of adding polar aprotic solvents such as DMSO on gelation” value (from here on “effect”) is given as “prevents gelation”. Besides, the goserelin remained result in data set [2] is reported as “about 65%”. Moreover, the “% PURITY” value is 98.1% in [3] (Acetate Buffer/Mannitol) and 98.0% in [3] (setting [10]). The “% CONCENTRATION” value in [3] (Acetate Buffer/Mannitol) was determined as 54.2%; in [3] (setting [10]), 50.1%. Besides, the “goserelin retained, in each case” value in [3] (both vehicles) is listed as “at least 98%”.
Consider calcitonin, for which the “effect” value in [1] is “prevents gelation”.
With `CCNC(=O)[C@@H]1CCCN1C(=O)[C@H](CCCNC(=N)N)NC(=O)[C@H](CC(C)C)NC(=O)[C@@H](CC(C)C)NC(=O)[C@H](Cc1ccc(O)cc1)NC(=O)[C@H](CO)NC(=O)[C@H](Cc1c[nH]c2ccccc12)NC(=O)[C@H](Cc1c[nH]cn1)NC(=O)[C@@H]1CCC(=O)N1` [Leuprolide Acetate, leuprolide acetate], the antimicrobial activity entry in data set [4] is “bacteriostatic, bactericidal and sporicidal activity”. Also, the “stability of samples after spiking with bacteria” value in data set [4] was “unaffected”. Moreover, in data set [1], the “effect” value is “prevents gelation”. For the same compound, the leuprolide present in data set [5] is 88.3%. Besides, in data set [5], the “physical aggregates ("late")” value is on record as 3.5%. Moreover, the evaporated from reservoir amounted to 60% in [6] (polymer reservoir, 40% in EtOH/H2O) and 10% in [6] (polymer reservoir, 40% in Water (sample with 66% leuprolide)). Also, the “% Leuprolide at Day 7” value was 65% in data set [6] (polymer reservoir, 40% in 10% Tween 20); 85% in [6] (polymer reservoir, 40% in EtOH/H2O (70/30)); 68% and 66% in data set [6] (polymer reservoir, 40% in Water); 71% in data set [6] (titanium reservoir, 40% in Water). The “leuprolide retained, in each case” value in data set [6] (all Table III formulations, 7 days at 80-88° C.) is given as “at least 65%”. The aggregate formation entry in [7] (setting [11]) was “low levels of aggregate formation”. Also, the “leuprolide retained, in every case” value in data set [7] (setting [11]) was “at least 65%”. The “% Leuprolide at Day 7 (RP-HPLC)” value in data set [7] (polymer reservoir, irradiated) was 75%; in data set [7] (setting [12]), 79%; in data set [7] (setting [13]), 75%; in data set [7] (titanium reservoir, irradiated), 83% and 81% and 73% and 79% and 74%; in data set [7] (setting [14]) it was 82%. Further, the “SEC Day 0 % dimer/trimer” value was 1.2% in data set [7] (polymer reservoir, irradiated); 0.2% in data set [7] (setting [12]); 0.2% in data set [7] (setting [13]); 1.1% and 0.9% and 0.8% and 0.5% in [7] (titanium reservoir, irradiated); 0% in data set [7] (setting [14]). Also, the “SEC Day 0 % monomer” value in data set [7] (polymer reservoir, irradiated) is 90.4%; in data set [7] (setting [12]) it was 89.4%; in data set [7] (setting [13]), 99.8%; in data set [7] (titanium reservoir, irradiated) it was 98.5% and 98.8% and 99.1% and 99% and 98.6%; in data set [7] (setting [14]), 99.6% and 99.9%. Besides, the “SEC Day 7 % dimer/trimer” value in data set [7] (polymer reservoir, irradiated) is 3.9%; in data set [7] (setting [12]), 3.1%; in [7] (setting [13]) it was 3.1%; in data set [7] (titanium reservoir, irradiated), 2% and 2.4% and 3% and 3.4% and 3.6%; in data set [7] (setting [14]), 0% and 1.9%. Moreover, the “SEC Day 7 % monomer” value in [7] (polymer reservoir, irradiated) was 80.9%; in data set [7] (setting [12]), 80.3%; in data set [7] (setting [13]), 82.4%; in data set [7] (titanium reservoir, irradiated) it was 84.9% and 94.7% and 88.3% and 94.3% and 90.9%; in data set [7] (setting [14]), 96.6% and 95%. The chemical degradation in data set [8] turned out to be 14.6%. For the same compound, the “activation energy (Ea) of leuprolide loss” value in [8] (40% (w/w) in water, 37-80° C.) is 22.2 kcal/mol. For the same compound, the Kobs in [8] (40% (w/w) in water, 37° C.) was 7.24 × 10^-3 months^-1; in [8] (40% (w/w) in water, 50° C.), 3.21 × 10^-2 months^-1; in data set [8] (40% (w/w) in water, 65° C.), 0.111 months^-1; in data set [8] (40% (w/w) in water, 80° C.), 0.655 months^-1. In addition, the t1/2 is given as 95.7 months in [8] (40% (w/w) in water, 37° C.); 21.6 months in data set [8] (40% (w/w) in water, 50° C.); 6.3 months in data set [8] (40% (w/w) in water, 65° C.); 1.1 months in data set [8] (40% (w/w) in water, 80° C.). This compound returned a t90 in [8] (40% (w/w) in water, 37° C.) of 13.8 months. In data set [8] (40% (w/w) in water, two months at 80° C.), this compound yielded a physical aggregation of 5.1%. In data set [8] (40% (w/w) in water, two months at 80° C., RP-HPLC), this compound yielded a leuprolide recovered of 81.1%. The “aggregation by SEC (FIG. 2)” value in data set [8] (40% in water, two months at 80° C., dimer and trimer only) was “very little aggregation”.
`CC(C)C[C@H](NC(=O)[C@@H](Cc1ccc2ccccc2c1)NC(=O)[C@H](Cc1ccc(O)cc1)NC(=O)[C@H](CO)NC(=O)[C@H](Cc1c[nH]c2ccccc12)NC(=O)[C@H](Cc1c[nH]cn1)NC(=O)[C@@H]1CCC(=O)N1)C(=O)N[C@@H](CCCNC(=N)N)C(=O)N1CCC[C@H]1C(=O)NCC(N)=O` [Nafarelin, nafarelin]: in [9], the “% PURITY” value worked out at 98.8% and the nafarelin retained result is listed as “at least 98%”. Moreover, the “% CONCENTRATION” value in [9] (patent calls these data inconclusive) came to 18.3%.

For the origin of these results see patent US6068850A, “Aqueous formulations of peptides” (Alza Corporation, priority 1999, dated 2000).
